Assays:
[1] = target: T1, RORγ ligand binding domain (Homo sapiens, UniProt P51449); test: RORγ radioligand competition binding assay (SPA); conditions: competition with tritiated 2-(4-(ethylsulfonyl)phenyl)-N-(4-(2-(methoxymethyl)phenyl)thiophen-2-yl)acetamide (25 nM), hRORγ LBD
Source text: RORγ Radioligand Competition Binding Assay The aim of this assay is to identify compounds which bind to the RORγ ligand binding domain, by competing with tritiated 2-(4-(ethylsulfonyl)phenyl)-N-(4-(2-(methoxymethyl)phenyl)thiophen-2-yl)acetamide. Human RORγ (Ligand Binding Domain (RORγ LBD) was expressed in E. coli (BL21DE3 Star) as a fusion protein: N-6×HN-Avi-GST-TCS-hRORγ LBD (S258-K518) subcloned into pET24a(+). The LBD (258-518) is underlined in the protein sequence: The scintillation proximity assay (SPA) was run in white polystyrene flat-bottom 384-well plates (Greiner, cat. No. 781075). Assays were carried out in 40 μl reaction volumes. Various concentrations of test ligands in 0.4 microlitres of DMSO were added to assay plates using an acoustic liquid dispenser. 4 nM purified N-(HN)6-GST-TCS-hRORγ (258-518) was mixed with 40 micrograms Yttrium oxide (YOx) glutathione SPA imaging beads in assay buffer (20 mM Tris, 150 mM NaCl, 10% Glycerol, 0.25% CHAPS, 1 mM TCEP) prior to adding 30 microlitres to test ligands. Assay plates were incubated for one hour at room temperature before adding 10 microlitres tritiated 2-(4-(ethylsulfonyl)phenyl)-N-(4-(2-(methoxymethyl)phenyl)thiophen-2-yl)acetamide to test plates in assay buffer (final concentration, 25 nM). Test plates were incubated for 16 hours and read using a LEADseeker Multimodality imaging instrument. The raw data was analysed and IC50 and Ki values for the compounds were calculated using Genedata Screener software. Raw data was transformed to % effect using equation 1: Compound % effect=100*[(X−min)/(max−min)], where X represents the normalized value for the compound based on the Min (vehicle) and Max (reference compound) inhibition controls. The concentration of test ligand that inhibited radioligand binding by 50% (i.e., the IC50) was calculated by plotting the % effect versus test ligand concentration and fitting the data using the Genedata Screener Smart fit algorithm. Ki is calculated from the IC50 value using the equation Ki=IC50/1+[L]/Kd) where [L]=25 nmol/L and Kd=17 nmol/L

[2] = target: T1, RORγ ligand binding domain; test: RORγ co-factor recruitment assay (FRET); format: biochemical; set-up: made in house; host or cells: E. coli BL21DE3 Star; conditions: inhibition of recruitment of SRC-1 peptide (NCOA1_677-700) to hRORγ LBD, HTRF read-out
Source text: RORγ Co-Factor Recruitment Assay A high throughput coactivator binding assay for the identification of inverse agonists of the recruitment of peptide SRC-1 (NCOA1_677-_700) to the RORγ ligand binding domain was established. The ligand binding domain (LBD) of human RORγ was expressed in E. coli (BL21DE3 Star) as a fusion protein: N-6×HN-MBP-Avi-TCS-hRORγLBD(P260-K518) subcloned into pET24a(+). The LBD (P260-K518) is underlined in the protein sequence: The assay was run in black 384 well plates (Greiner cat no: 784900). Various concentrations of test ligands in 0.1 microlitres DMSO were dispensed to assay plates using an Echo acoustic dispenser. Two pre-mixes were prepared and incubated for 1 h at room temp in the dark. Pre-mix 1 comprised 100 nM Protein (Biotinylated HN-Avi-MBP-TCS-hRORγ (258-518)) and 60 nM Streptavidin APC in assay buffer, 50 mM MOPS pH7.4, 50 mM KF, 0.003% (w/v) CHAPS, 10 mM DTT and 0.01% (w/v) BSA and pre-mix 2 comprised 160 nM biotinylated SRC-1 peptide (NCOA1-677-700) and 20 nM Europium-W8044 labelled Streptavidin in assay buffer. Five microlitres of pre-mix 2 was dispensed to assay plates containing 0.1 microlitres of test compound and was incubated for 15 min prior to adding five microlitres of pre-mix 1. Plates were incubated at rt for 1 hour in the dark, prior to reading in a Pherastar multi-mode plate reader using HTRF filter set (ex 320, em 612 and 665). The FRET signal at 665 nm was divided by the signal at 612 nm and multiplied by 10,000 to generate a signal ratio value for each well. The raw data was transformed to % effect using the equation: Compound % effect=100*[(X−min)/(max−min)], where X represents the normalized value for the compound based on the Min (vehicle) and Max (reference compound) inhibition control. The concentration of test ligand that inhibited the activity by 50% (i.e., the IC50) was calculated by plotting the % effect versus test ligand concentration and fitting the data using the Genedata Screener Smart fit algorithm.

| Compound | IC50 [1] [nM] | IC50 [2] [nM] |
| --- | --- | --- |
| CS(=O)(=O)c1ccc2c(c1)CN(C=O)C2C(=O)Nc1ccc(C(C#N)(C(F)(F)F)C(F)(F)F)cc1 (centres unmarked) [Example 6, N-[4-(2-Cyano-1,1,1,3,3,3-hexafluoropropan-2-yl)phenyl]-2-formyl-5-(methylsulfonyl)-2,3-dihydro-1H-isoindole-1-carboxamide] | 10 | 39.8 |
| COC(=O)N1Cc2cc(S(C)(=O)=O)ccc2C1C(=O)Nc1ccc(C(C#N)(C(F)(F)F)C(F)(F)F)cc1 (centres unmarked) [Example 7, Methyl 1-{[4-(2-cyano-1,1,1,3,3,3-hexafluoropropan-2-yl)phenyl]carbamoyl}-5-(methylsulfonyl)-1,3-dihydro-2H-isoindole-2-carboxylate] | 12.6 | 50.1 |
| COCC(=O)N1Cc2cc(S(C)(=O)=O)ccc2C1C(=O)Nc1ccc(C(C#N)(C(F)(F)F)C(F)(F)F)cc1 (centres unmarked) [Example 8, N-[4-(2-Cyano-1,1,1,3,3,3-hexafluoropropan-2-yl)phenyl]-2-(methoxyacetyl)-5-(methylsulfonyl)-2,3-dihydro-1H-isoindole-1-carboxamide] | 12.6 | 50.1 |
| CS(=O)(=O)c1ccc2c(c1)CN(C(=O)CCC(=O)O)C2C(=O)Nc1ccc(C(C#N)(C(F)(F)F)C(F)(F)F)cc1 (centres unmarked) [Example 9, 4-[1-{[4-(2-Cyano-1,1,1,3,3,3-hexafluoropropan-2-yl)phenyl]carbamoyl}-5-(methylsulfonyl)-1,3-dihydro-2H-isoindol-2-yl]-4-oxobutanoic acid] | 10 | 100 |
| CS(=O)(=O)c1ccc2c(c1)CN(C(=O)CN)C2C(=O)Nc1ccc(C(C#N)(C(F)(F)F)C(F)(F)F)cc1 (centres unmarked) [Example 10, N-[4-(2-Cyano-1,1,1,3,3,3-hexafluoropropan-2-yl)phenyl]-2-glycyl-5-(methylsulfonyl)-2,3-dihydro-1H-isoindole-1-carboxamide] | 25.1 | 79.4 |
| CS(=O)(=O)c1ccc2c(c1)CN(C(=O)CCN)C2C(=O)Nc1ccc(C(C#N)(C(F)(F)F)C(F)(F)F)cc1 (centres unmarked) [Example 11, 2-(3-Aminopropanoyl)-N-[4-[1-cyano-2,2,2-trifluoro-1-(trifluoromethyl)ethyl]phenyl]-5-methylsulfonyl-isoindoline-1-carboxamide] | 25.1 | 158 |
| CCCNC(c1ccc(NC(=O)C2c3ccc(S(C)(=O)=O)cc3CN2C(C)=O)cc1)(C(F)(F)F)C(F)(F)F (centres unmarked) [Example 16, 2-Acetyl-N-{4-[1,1,1,3,3,3-hexafluoro-2-(propylamino)propan-2-yl]phenyl}-5-(methylsulfonyl)-2,3-dihydro-1H-isoindole-1-carboxamide] | 6.31 | 39.8 |
| CNC(c1ccc(NC(=O)C2c3ccc(S(C)(=O)=O)cc3CN2C(C)=O)cc1)(C(F)(F)F)C(F)(F)F (centres unmarked) [Example 24, 2-Acetyl-N-{4-[1,1,1,3,3,3-hexafluoro-2-(methylamino)propan-2-yl]phenyl}-5-(methylsulfonyl)-2,3-dihydro-1H-isoindole-1-carboxamide] | 31.6 | 50.1 |
| CC(=O)N1Cc2cc(S(C)(=O)=O)ccc2C1C(=O)Nc1ccc(C(N(C)C)(C(F)(F)F)C(F)(F)F)cc1 (centres unmarked) [Example 25, 2-Acetyl-N-{4-[2-(dimethylamino)-1,1,1,3,3,3-hexafluoropropan-2-yl]phenyl}-5-(methylsulfonyl)-2,3-dihydro-1H-isoindole-1-carboxamide] | 6.31 | 39.8 |
| CC(=O)N1Cc2cc(S(C)(=O)=O)ccc2C1C(=O)Nc1ccc(C(NCCS(C)(=O)=O)(C(F)(F)F)C(F)(F)F)cc1 (centres unmarked) [Example 26, 2-Acetyl-N-[4-(1,1,1,3,3,3-hexafluoro-2-{[2-(methylsulfonyl)ethyl]amino}propan-2-yl)phenyl]-5-(methylsulfonyl)-2,3-dihydro-1H-isoindole-1-carboxamide] | 631 | 1000 |
| CC(=O)N1Cc2cc(S(C)(=O)=O)ccc2C1C(=O)Nc1ccc(C(NCCOC(C)C)(C(F)(F)F)C(F)(F)F)cc1 (centres unmarked) [Example 27, 2-Acetyl-N-[4-(1,1,1,3,3,3-hexafluoro-2-{[2-(propan-2-yloxy)ethyl]amino}propan-2-yl)phenyl]-5-(methylsulfonyl)-2,3-dihydro-1H-isoindole-1-carboxamide] | 7.94 | > 31600 |
| COC(c1ccc(NC(=O)C2c3ccc(S(C)(=O)=O)cc3CN2C(C)=O)cc1)(C(F)(F)F)C(F)(F)F (centres unmarked) [Example 28, 2-Acetyl-N-[4-(1,1,1,3,3,3-hexafluoro-2-methoxypropan-2-yl)phenyl]-5-(methylsulfonyl)-2,3-dihydro-1H-isoindole-1-carboxamide] | 7.94 | 39.8 |
| CC(=O)N1Cc2cc(S(C)(=O)=O)ccc2C1C(=O)Nc1ccc(C(n2ccnn2)(C(F)(F)F)C(F)(F)F)cc1 (centres unmarked) [Example 29, 2-Acetyl-N-{4-[1,1,1,3,3,3-hexafluoro-2-(1H-1,2,3-triazol-1-yl)propan-2-yl]phenyl}-5-(methylsulfonyl)-2,3-dihydro-1H-isoindole-1-carboxamide] | 39.8 | 100 |
| CC(=O)N1Cc2cc(S(C)(=O)=O)ccc2C1C(=O)Nc1ccc(C(CC(=O)N2CC(C)(F)C2)(C(F)(F)F)C(F)(F)F)cc1 (centres unmarked) [Example 39, 2-Acetyl-5-(methylsulfonyl)-N-{4-[1,1,1-trifluoro-4-(3-fluoro-3-methylazetidin-1-yl)-4-oxo-2-(trifluoromethyl)butan-2-yl]phenyl}-2,3-dihydro-1H-isoindole-1-carboxamide] | 398 | > 31600 |
| CC(=O)N1Cc2cc(S(C)(=O)=O)ccc2C1C(=O)Nc1ccc(C(CC(=O)OC(C)C)(C(F)(F)F)C(F)(F)F)cc1 (centres unmarked) [Example 40, Propan-2-yl 3-[4-({[2-acetyl-5-(methylsulfonyl)-2,3-dihydro-1H-isoindol-1-yl]carbonyl}amino)phenyl]-4,4,4-trifluoro-3-(trifluoromethyl)butanoate] | 12.6 | > 31600 |
| CC(=O)N1Cc2cc(S(C)(=O)=O)ccc2C1C(=O)Nc1ccc(C(CC(=O)OC(C)(C)C)(C(F)(F)F)C(F)(F)F)cc1 (centres unmarked) [Example 44, tert-Butyl 3-[4-({[2-acetyl-5-(methylsulfonyl)-2,3-dihydro-1H-isoindol-1-yl]carbonyl}amino)phenyl]-4,4,4-trifluoro-3-(trifluoromethyl)butanoate] | 15.8 | > 31600 |

Reference: patent publication US11034654B2, “2,3-dihydroisoindole-1-carboxamides useful as ROR-gamma modulators” (AstraZeneca AB, priority 2017, dated 2021)
